Measured values from patent US20100298141A1, “SUBSTITUTED PYRIDINE N-OXIDE HERBICIDES” (E. I. DU PONT DE NEMOURS AND COMPANY, priority 2007, published 2010).

Key:
Assay in all cases: Test F preemergence test
bermudagrass = assay type: in vivo, Cynodon dactylon; conditions: scale 0 to 100
Method in brief: (§1)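 Visual ratings relative to controls, taken after 14 to 21 days in a greenhouse. Test chemicals, formulated in a surfactant-containing non-phytotoxic solvent mixture, were applied preemergence to sown seeds or postemergence to sugarcane plants.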

Surinam grass = assay type: in vivo, Brachiaria decumbens; conditions: scale 0 to 100
Method in brief: as §1

large crabgrass = assay type: in vivo, Digitaria sanguinalis; conditions: scale 0 to 100
Method in brief: as §1

goosegrass = assay type: in vivo, Eleusine indica; conditions: scale 0 to 100
Method in brief: as §1

johnsongrass = assay type: in vivo, Sorghum halepense; conditions: scale 0 to 100
Method in brief: as §1

kochia = assay type: in vivo, Kochia scoparia; conditions: scale 0 to 100
Method in brief: as §1

pitted morningglory = assay type: in vivo, Ipomoea lacunosa; conditions: scale 0 to 100
Method in brief: as §1

common ragweed = assay type: in vivo, Ambrosia elation; conditions: scale 0 to 100
Method in brief: as §1

mustard = assay type: in vivo, Brassica nigra; conditions: scale 0 to 100
Method in brief: as §1

guineagrass = assay type: in vivo, Panicum maximum; conditions: scale 0 to 100
Method in brief: as §1

dallisgrass = assay type: in vivo, Paspalum dilatatum; conditions: scale 0 to 100
Method in brief: as §1

barnyardgrass = assay type: in vivo, Echinochloa crus-galli
Method in brief: as §1

prickly sida = assay type: in vivo, Sida spinosa; conditions: scale 0 to 100
Method in brief: as §1

Italian ryegrass = assay type: in vivo, Lolium multiflorum; conditions: scale 0 to 100
Method in brief: as §1

common purslane = assay type: in vivo, Portulaca oleracea; conditions: scale 0 to 100
Method in brief: as §1

broadleaf signalgrass = assay type: in vivo, Brachiaria platyphylla; conditions: scale 0 to 100
Method in brief: as §1

Virginia dayflower = assay type: in vivo, Commelina virginica; conditions: scale 0 to 100
Method in brief: as §1

naked crabgrass = assay type: in vivo, Digitaria nuda; conditions: scale 0 to 100
Method in brief: as §1

itchgrass = assay type: in vivo, Rottboellia cochinchinensis; conditions: scale 0 to 100
Method in brief: as §1

quackgrass = assay type: in vivo, Elytrigia repens; conditions: scale 0 to 100
Method in brief: as §1

## Cc1cc[n+]([O-])c(S(=O)(=O)C(Cl)c2c(C(F)(F)F)nn(C)c2OCC(F)(F)F)c1 (racemic) [Compound 37]
bermudagrass; 16 g ai/ha, preemergence
  Plant response rating, Bermudagrass: 35
bermudagrass; 62 g ai/ha, Preemergence
  Bermudagrass plant response rating: 65
bermudagrass; 125 g ai/ha, preemergence
  Bermudagrass plant response rating: 75
bermudagrass; Preemergence, 31 g ai/ha
  Plant response rating, Bermudagrass: 35
Surinam grass; 16 g ai/ha, preemergence
  Plant response rating, Surinam Grass: 0
Surinam grass; 125 g ai/ha, preemergence
  Surinam Grass plant response rating: 90
Surinam grass; Preemergence, 62 g ai/ha
  Plant response rating, Surinam Grass: 60
Surinam grass; Preemergence, 31 g ai/ha
  Plant response rating, Surinam Grass: 60
Large crabgrass; 16 g ai/ha, preemergence
  Plant response rating, Crabgrass, Large: 0
Large crabgrass; 62 g ai/ha, Preemergence
  Crabgrass, Large plant response rating: 50
Large crabgrass; 125 g ai/ha, preemergence
  Crabgrass, Large plant response rating: 50
Large crabgrass; Preemergence, 31 g ai/ha
  Plant response rating, Crabgrass, Large: 35
goosegrass; 16 g ai/ha, preemergence
  Plant response rating, Goosegrass: 65
goosegrass; 62 g ai/ha, Preemergence
  Goosegrass plant response rating: 75
goosegrass; 125 g ai/ha, preemergence
  Goosegrass plant response rating: 98
goosegrass; Preemergence, 31 g ai/ha
  Plant response rating, Goosegrass: 65
johnsongrass; 16 g ai/ha, preemergence
  Plant response rating, Johnsongrass: 30
johnsongrass; 62 g ai/ha, Preemergence
  Johnsongrass plant response rating: 75
johnsongrass; 125 g ai/ha, preemergence
  Johnsongrass plant response rating: 100
johnsongrass; Preemergence, 31 g ai/ha
  Plant response rating, Johnsongrass: 75
kochia; 16 g ai/ha, preemergence
  Plant response rating, Kochia: 0
kochia; 62 g ai/ha, Preemergence
  Kochia plant response rating: 0
kochia; 125 g ai/ha, preemergence
  Kochia plant response rating: 0
kochia; Preemergence, 31 g ai/ha
  Plant response rating, Kochia: 0
Pitted morningglory; 16 g ai/ha, preemergence
  Plant response rating, Morningglory: 0
Pitted morningglory; 62 g ai/ha, Preemergence
  Morningglory plant response rating: 0
Pitted morningglory; 125 g ai/ha, preemergence
  Morningglory plant response rating: 35
Pitted morningglory; Preemergence, 31 g ai/ha
  Plant response rating, Morningglory: 0
Common ragweed; 16 g ai/ha, preemergence
  Plant response rating, Ragweed: 0
Common ragweed; 125 g ai/ha, preemergence
  Ragweed plant response rating: 0
Common ragweed; Preemergence, 62 g ai/ha
  Plant response rating, Ragweed: 0
Common ragweed; Preemergence, 31 g ai/ha
  Plant response rating, Ragweed: 0
mustard; 16 g ai/ha, preemergence
  Plant response rating, Black Mustard: 0
mustard; 62 g ai/ha, Preemergence
  Black Mustard plant response rating: 50
mustard; 125 g ai/ha, preemergence
  Black Mustard plant response rating: 100
mustard; Preemergence, 31 g ai/ha
  Plant response rating, Black Mustard: 15
guineagrass; 16 g ai/ha, preemergence
  Plant response rating, Guineagrass: 65
guineagrass; 62 g ai/ha, Preemergence
  Guineagrass plant response rating: 85
guineagrass; 125 g ai/ha, preemergence
  Guineagrass plant response rating: 100
guineagrass; Preemergence, 31 g ai/ha
  Plant response rating, Guineagrass: 75
dallisgrass; 16 g ai/ha, preemergence
  Plant response rating, Dallisgrass: 0
dallisgrass; 62 g ai/ha, Preemergence
  Dallisgrass plant response rating: 75
dallisgrass; 125 g ai/ha, preemergence
  Dallisgrass plant response rating: 100
dallisgrass; Preemergence, 31 g ai/ha
  Plant response rating, Dallisgrass: 25
barnyardgrass; 16 g ai/ha, preemergence, scale 0 to 100 (0 no effect, 100 complete control)
  Plant response rating, Barnyardgrass: 20
barnyardgrass; 62 g ai/ha, Preemergence, scale 0 to 100
  Barnyardgrass plant response rating: 100
barnyardgrass; 125 g ai/ha, preemergence, scale 0 to 100
  Barnyardgrass plant response rating: 100
barnyardgrass; Preemergence, 31 g ai/ha, scale 0 to 100
  Plant response rating, Barnyardgrass: 40
Prickly sida; 16 g ai/ha, preemergence
  Plant response rating, Prickly Sida: 0
Prickly sida; 62 g ai/ha, Preemergence
  Prickly Sida plant response rating: 35
Prickly sida; 125 g ai/ha, preemergence
  Prickly Sida plant response rating: 90
Prickly sida; Preemergence, 31 g ai/ha
  Plant response rating, Prickly Sida: 15
Italian ryegrass; 16 g ai/ha, preemergence
  Plant response rating, Ryegrass, Italian: 20
Italian ryegrass; 125 g ai/ha, preemergence
  Ryegrass, Italian plant response rating: 100
Italian ryegrass; Preemergence, 62 g ai/ha
  Plant response rating, Ryegrass, Italian: 90
Italian ryegrass; Preemergence, 31 g ai/ha
  Plant response rating, Ryegrass, Italian: 75
Common purslane; 16 g ai/ha, preemergence
  Plant response rating, Purslane: 0
Common purslane; 62 g ai/ha, Preemergence
  Purslane plant response rating: 25
Common purslane; 125 g ai/ha, preemergence
  Purslane plant response rating: 50
Common purslane; Preemergence, 31 g ai/ha
  Plant response rating, Purslane: 0
Broadleaf signalgrass; 16 g ai/ha, preemergence
  Plant response rating, Signalgrass: 20
Broadleaf signalgrass; 125 g ai/ha, preemergence
  Signalgrass plant response rating: 95
Broadleaf signalgrass; Preemergence, 62 g ai/ha
  Plant response rating, Signalgrass: 65
Broadleaf signalgrass; Preemergence, 31 g ai/ha
  Plant response rating, Signalgrass: 35
Virginia dayflower; 16 g ai/ha, preemergence
  Plant response rating, Dayflower: 0
Virginia dayflower; 62 g ai/ha, Preemergence
  Dayflower plant response rating: 100
Virginia dayflower; 125 g ai/ha, preemergence
  Dayflower plant response rating: 100
Virginia dayflower; Preemergence, 31 g ai/ha
  Plant response rating, Dayflower: 90
Naked crabgrass; 16 g ai/ha, preemergence
  Plant response rating, Crabgrass, Naked: 40
Naked crabgrass; 62 g ai/ha, Preemergence
  Crabgrass, Naked plant response rating: 40
Naked crabgrass; 125 g ai/ha, preemergence
  Crabgrass, Naked plant response rating: 100
itchgrass; 16 g ai/ha, preemergence
  Plant response rating, Itchgrass: 0
itchgrass; 62 g ai/ha, Preemergence
  Itchgrass plant response rating: 35
itchgrass; 125 g ai/ha, preemergence
  Itchgrass plant response rating: 80
itchgrass; Preemergence, 31 g ai/ha
  Plant response rating, Itchgrass: 0
quackgrass; 16 g ai/ha, preemergence
  Plant response rating, Quackgrass: 0
quackgrass; 62 g ai/ha, Preemergence
  Quackgrass plant response rating: 25
quackgrass; 125 g ai/ha, preemergence
  Quackgrass plant response rating: 70
quackgrass; Preemergence, 31 g ai/ha
  Plant response rating, Quackgrass: 25
